These results are taken from patent publication US10077261B2, “Imidazolin-5-one derivative useful as FASN inhibitors for the treatment of cancer” (Janssen Pharmaceutica NV, priority 2012, dated 2018).

Experiment [1] relates to A2780 ovarian cells. In words: A2780 ovarian cell proliferation assay in lipid reduced medium, with palmitate (MTT). It is filed as cell-based. The following applies: Homo sapiens, A2780, 96 h; read-out: pIC50 A2780 Ovarian Cell, With Palmitate (converted). The essentials: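 Seeded cells were switched next day to lipid-reduced serum, exposed to compound and 25 μM palmitate complexed with fatty-acid-free BSA, and incubated 96 h. Proliferation was then determined by MTT absorbance at 544 nm, with a best-fit curve of signal against concentration.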

The target of experiment [2] is Fatty Acid Synthase Keto-reductase Domain (FASN KR) (Homo sapiens, UniProt P49327). Description: Fatty Acid Synthase keto-reductase domain (FASN KR) inhibition, NADPH oxidation at 340 nm.
Fatty Acid Synthase Keto-reductase Domain (FASN KR), sequence (P49327 whole entry, the tested form may be a part): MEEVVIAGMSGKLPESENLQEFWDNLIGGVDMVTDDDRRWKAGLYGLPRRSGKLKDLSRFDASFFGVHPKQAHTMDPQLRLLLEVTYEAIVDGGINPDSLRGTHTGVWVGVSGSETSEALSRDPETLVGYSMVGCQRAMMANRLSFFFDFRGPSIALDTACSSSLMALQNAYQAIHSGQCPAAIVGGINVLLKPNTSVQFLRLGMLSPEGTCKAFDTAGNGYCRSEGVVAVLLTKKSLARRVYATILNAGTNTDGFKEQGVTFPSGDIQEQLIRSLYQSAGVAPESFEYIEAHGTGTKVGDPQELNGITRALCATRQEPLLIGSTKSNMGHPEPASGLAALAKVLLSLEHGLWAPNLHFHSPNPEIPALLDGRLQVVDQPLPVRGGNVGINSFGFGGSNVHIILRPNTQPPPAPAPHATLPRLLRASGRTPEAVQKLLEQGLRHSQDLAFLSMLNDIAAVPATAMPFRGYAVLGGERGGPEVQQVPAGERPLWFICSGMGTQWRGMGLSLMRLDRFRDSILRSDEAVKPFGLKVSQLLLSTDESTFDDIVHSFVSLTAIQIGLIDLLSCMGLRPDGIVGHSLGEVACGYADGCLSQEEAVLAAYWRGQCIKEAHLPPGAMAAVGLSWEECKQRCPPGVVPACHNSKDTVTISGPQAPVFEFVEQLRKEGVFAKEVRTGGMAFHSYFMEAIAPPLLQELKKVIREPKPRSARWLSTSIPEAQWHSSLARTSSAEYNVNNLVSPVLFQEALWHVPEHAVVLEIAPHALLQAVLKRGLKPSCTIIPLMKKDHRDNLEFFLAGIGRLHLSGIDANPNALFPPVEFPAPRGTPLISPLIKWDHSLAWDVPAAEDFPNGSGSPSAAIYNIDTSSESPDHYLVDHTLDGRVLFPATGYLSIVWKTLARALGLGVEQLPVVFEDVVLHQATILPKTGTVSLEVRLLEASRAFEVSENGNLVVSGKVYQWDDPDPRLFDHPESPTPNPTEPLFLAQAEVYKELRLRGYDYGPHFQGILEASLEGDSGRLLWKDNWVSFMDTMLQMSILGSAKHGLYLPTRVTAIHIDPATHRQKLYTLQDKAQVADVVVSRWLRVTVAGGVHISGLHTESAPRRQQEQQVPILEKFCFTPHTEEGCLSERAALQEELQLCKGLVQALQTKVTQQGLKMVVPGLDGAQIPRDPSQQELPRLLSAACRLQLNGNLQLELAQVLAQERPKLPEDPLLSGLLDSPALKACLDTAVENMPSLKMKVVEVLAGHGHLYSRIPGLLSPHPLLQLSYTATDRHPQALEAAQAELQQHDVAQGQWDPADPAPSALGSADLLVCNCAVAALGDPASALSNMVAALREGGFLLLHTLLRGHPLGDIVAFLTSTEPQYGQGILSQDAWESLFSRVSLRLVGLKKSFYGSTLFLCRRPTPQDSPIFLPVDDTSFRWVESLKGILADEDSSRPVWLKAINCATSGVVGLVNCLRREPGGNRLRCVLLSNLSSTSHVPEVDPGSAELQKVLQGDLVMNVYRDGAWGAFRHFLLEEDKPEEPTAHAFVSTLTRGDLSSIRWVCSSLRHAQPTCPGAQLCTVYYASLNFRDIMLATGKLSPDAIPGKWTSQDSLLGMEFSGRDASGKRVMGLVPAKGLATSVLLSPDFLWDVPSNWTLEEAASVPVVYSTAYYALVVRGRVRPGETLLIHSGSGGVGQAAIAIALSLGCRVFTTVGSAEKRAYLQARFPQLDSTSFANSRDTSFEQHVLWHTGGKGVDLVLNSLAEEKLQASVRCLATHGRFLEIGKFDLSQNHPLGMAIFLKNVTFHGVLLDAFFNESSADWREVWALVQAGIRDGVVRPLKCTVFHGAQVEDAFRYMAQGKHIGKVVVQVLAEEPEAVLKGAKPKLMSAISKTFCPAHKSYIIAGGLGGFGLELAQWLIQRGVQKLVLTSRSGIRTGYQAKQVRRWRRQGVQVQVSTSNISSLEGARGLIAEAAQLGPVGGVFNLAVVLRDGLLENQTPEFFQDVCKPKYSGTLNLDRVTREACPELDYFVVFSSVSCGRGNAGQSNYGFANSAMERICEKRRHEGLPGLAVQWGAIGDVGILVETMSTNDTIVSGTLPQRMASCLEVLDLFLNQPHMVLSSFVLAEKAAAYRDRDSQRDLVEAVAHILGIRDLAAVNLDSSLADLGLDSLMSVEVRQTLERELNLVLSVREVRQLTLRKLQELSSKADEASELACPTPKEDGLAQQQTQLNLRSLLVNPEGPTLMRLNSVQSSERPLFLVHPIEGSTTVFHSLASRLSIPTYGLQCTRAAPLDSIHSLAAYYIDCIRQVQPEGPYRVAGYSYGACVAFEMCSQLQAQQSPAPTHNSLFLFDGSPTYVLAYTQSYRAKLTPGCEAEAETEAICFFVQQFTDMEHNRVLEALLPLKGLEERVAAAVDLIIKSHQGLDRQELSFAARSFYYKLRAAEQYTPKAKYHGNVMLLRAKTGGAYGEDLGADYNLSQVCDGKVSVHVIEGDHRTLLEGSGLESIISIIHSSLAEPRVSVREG
Description: After 20 minutes incubation at room temperature the plate was measured again (T2).
The decrease in absorbance was calculated as (Absorbance before incubation T1)−(Absorbance following incubation T2).
A plot of Controlmin versus test compound concentration was fitted to a 4-parameter logistic curve using a non-linear least squares regression method.
Experiment [3] concerns the target T1, hFASN enzyme (full length) (Homo sapiens, UniProt P49327).
T1 construct: 10 μL hFASN enzyme (full length, 300 ng, purified in house); made in house
Description: Fatty Acid Synthase (FASN) inhibition scintillation proximity assay. The following applies: for inhibition at 10 µM: read-out: Human FASN % inhibition @ 10 μM, 10 μM test compound; for IC50: read-out: Human FASN pIC50 (converted). It is filed as biochemical. The method, boiled down:
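Purified full-length hFASN (300 ng) converts ^3H-acetyl-CoA plus malonyl-CoA to ^3H-palmitate in 100 mM KH2PO4 pH 7.5, 1 mM DTT; compounds tested at 0.01–30 μM. Product captured on streptavidin imaging beads and read by LEADseeker at 610 nm after ≥24 h; 4-parameter logistic fit versus controls.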
A general note: SPA uses beads or plates that emit light when radiolabelled molecules are held near them.

Experiment [4] deals with LNCaP-Vancouver prostate cells. Description: In vitro LNCaP Vancouver prostate cell proliferation assay in lipid reduced medium. It is filed as cell-based. The following applies: read-out: pIC50 LNCaP_Vancouver prostate cell (converted).
Experiment [5] relates to PC-3M-Luc-C6 prostate cells. In words: In vitro PC-3M-Luc-C6 prostate cell proliferation assay in lipid reduced medium. It is filed as cell-based. The following applies: 96 h, read-out: pIC50 PC-3M-Luc-C6 prostate cell (converted).
The subject of experiment [6] is A2780 ovarian cells. Description: A2780 ovarian cell proliferation assay in lipid reduced medium, without palmitate (MTT). It is filed as cell-based. The conditions noted are these: Homo sapiens, A2780, 96 h; read-out: pIC50 A2780 Ovarian Cell, Without Palmitate (converted).

The inhibition is the drop in the measured response relative to a control, in per cent.

T1 sequence (P49327 whole entry): as the sequence (P49327 whole entry, the tested form may be a part) above

`COc1ccc2cc(-c3ccc(C4=NC5(CC5)C(=O)N4CC4CN(C(=O)C5(C)CC5)C4)c(C)c3)ccc2c1` [compound 332, 5-(4-(6-methoxynaphthalen-2-yl)-2-methylphenyl)-6-((1-(1-methylcyclopropanecarbonyl)azetidin-3-yl)methyl)-4,6-diazaspiro[2.4]hept-4-en-7-one]: the IC50 in experiment [1] was 4170 nM; in experiment [2], 60.3 nM; in experiment [3], 18.6 nM; in experiment [4], 107 nM; in experiment [5] it was 12.3 nM; in experiment [6] it was 12.3 nM. The inhibition at 10 µM in experiment [3] was 100%.

With `Cc1cc(-c2ccc(-c3cnn(C)c3)cc2)ccc1C1=NC2(CC2)C(=O)N1CC1CN(C(=O)C2CC2)C1` [compound 333, 6-((1-(cyclopropanecarbonyl)azetidin-3-yl)methyl)-5-(3-methyl-4′-(1-methyl-1H-pyrazol-4-yl)-[1,1′-biphenyl]-4-yl)-4,6-diazaspiro[2.4]hept-4-en-7-one], the IC50 is more than 10000 nM in experiment [1]; 178 nM in experiment [2]; 55 nM in experiment [3]; 537 nM in experiment [4]; approximately 339 nM in experiment [5]; approximately 33.1 nM in experiment [6]. In experiment [3], the inhibition at 10 µM turned out to be 98%.

`Cc1ccc2cc(-c3ccc(C4=NC5(CC5)C(=O)N4CC4CN(C(=O)C5(C)CC5)C4)c(C)c3)ccc2c1` [compound 334, 5-(2-methyl-4-(6-methylnaphthalen-2-yl)phenyl)-6-((1-(1-methylcyclopropanecarbonyl)azetidin-3-yl)methyl)-4,6-diazaspiro[2.4]hept-4-en-7-one]: the IC50 in experiment [1] was 6920 nM; in experiment [2] it was 43.7 nM; in experiment [3], 21.9 nM; in experiment [4] it was 162 nM; in experiment [5] it was 37.2 nM; in experiment [6], 24 nM. In experiment [3], the inhibition at 10 µM worked out at 97%.

With `Cc1cc(-c2ccc3cnn(C)c3c2)ccc1C1=NC2(CC2)C(=O)N1CC1CN(C(=O)C2(C)CC2)C1` [compound 335, 5-(2-methyl-4-(1-methyl-1H-indazol-6-yl)phenyl)-6-((1-(1-methylcyclopropanecarbonyl)azetidin-3-yl)methyl)-4,6-diazaspiro[2.4]hept-4-en-7-one], the IC50 in experiment [1] was more than 10000 nM; in experiment [2], 166 nM; in experiment [3], 64.6 nM; in experiment [4], 603 nM; in experiment [5], approximately 115 nM; in experiment [6], 138 nM. Moreover, the inhibition at 10 µM in experiment [3] came out at 105%.

As to `Cc1cc(-c2ccc(-c3cnn(C4CC4)c3)cc2)ccc1C1=NC2(CC2)C(=O)N1CC1CN(C(=O)C2(C)CC2)C1` [compound 337, 5-(4′-(1-cyclopropyl-1H-pyrazol-4-yl)-3-methyl-[1,1′-biphenyl]-4-yl)-6-((1-(1-methylcyclopropanecarbonyl)azetidin-3-yl)methyl)-4,6-diazaspiro[2.4]hept-4-en-7-one], the IC50 was 6920 nM in experiment [1]; 79.4 nM in experiment [2]; 36.3 nM in experiment [3]; 79.4 nM in experiment [4]; 20.4 nM in experiment [5]; 38 nM in experiment [6]. For the same compound, in experiment [3], the inhibition at 10 µM turned out to be 105%.

As for `Cc1cc(-c2ccc(-c3cnn(C4CCC4)c3)cc2)ccc1C1=NC2(CC2)C(=O)N1CC1CN(C(=O)C2(C)CC2)C1` [compound 338, 5-(4′-(1-cyclobutyl-1H-pyrazol-4-yl)-3-methyl-[1,1′-biphenyl]-4-yl)-6-((1-(1-methylcyclopropanecarbonyl)azetidin-3-yl)methyl)-4,6-diazaspiro[2.4]hept-4-en-7-one], the IC50 in experiment [1] was approximately 4270 nM; in experiment [2], 148 nM; in experiment [3], 43.7 nM; in experiment [4], 126 nM; in experiment [5] it was 19.1 nM; in experiment [6], 21.9 nM. Also, the inhibition at 10 µM in experiment [3] is 106%.

For the compound `O=C(C1CC1)N1CC(CN2C(=O)C3(CC3)N=C2c2ccc(-c3ccc4cc(Cl)cnc4c3)cc2)C1` [compound 339, 5-(4-(3-chloroquinolin-7-yl)phenyl)-6-((1-(cyclopropanecarbonyl)azetidin-3-yl)methyl)-4,6-diazaspiro[2.4]hept-4-en-7-one], the IC50 was approximately 2820 nM in experiment [1]; 47.9 nM in experiment [2]; 30.9 nM in experiment [3]; 324 nM in experiment [4]; 31.6 nM in experiment [5]; 28.8 nM in experiment [6]. Moreover, the inhibition at 10 µM in experiment [3] was 95%.

Consider `Cc1cc(-c2ccc3cc(Cl)cnc3c2)ccc1C1=NC2(CC2)C(=O)N1CC1CN(C(=O)C2(C)CC2)C1` [compound 340, 5-(4-(3-chloroquinolin-7-yl)-2-methylphenyl)-6-((1-(1-methylcyclopropanecarbonyl)azetidin-3-yl)methyl)-4,6-diazaspiro[2.4]hept-4-en-7-one], for which the IC50 in experiment [1] was 6030 nM; in experiment [2], 38 nM; in experiment [3], 28.8 nM; in experiment [4], 93.3 nM; in experiment [5], 18.2 nM; in experiment [6] it was 15.5 nM. In experiment [3], the inhibition at 10 µM is 101%.

For `O=C(C1CC1)N1CC[C@@H](CN2C(=O)C3(CC3)N=C2c2ccc(-c3ccc4[nH]ccc4c3)cn2)C1` [compound 341, (R)-5-(5-(1H-indol-5-yl)pyridin-2-yl)-6-((1-(cyclopropanecarbonyl)pyrrolidin-3-yl)methyl)-4,6-diazaspiro[2.4]hept-4-en-7-one], the IC50 in experiment [1] was more than 6170 nM; in experiment [2] it was 209 nM; in experiment [3] it was 64.6 nM; in experiment [4], 525 nM; in experiment [5] it was 126 nM; in experiment [6], 132 nM. Moreover, the inhibition at 10 µM in experiment [3] is 102%.

Take `O=C(C1CC1)N1CC[C@@H](CN2C(=O)C3(CC3)N=C2c2ccc(-c3ccc4sccc4c3)cn2)C1` [compound 342, (R)-5-(5-(benzo[b]thiophen-5-yl)pyridin-2-yl)-6-((1-(cyclopropanecarbonyl)pyrrolidin-3-yl)methyl)-4,6-diazaspiro[2.4]hept-4-en-7-one]: the IC50 in experiment [1] is more than 10000 nM; in experiment [2], 195 nM; in experiment [3], 69.2 nM; in experiment [4] it was 1620 nM; in experiment [5] it was approximately 891 nM; in experiment [6], 1860 nM. Further, in experiment [3], the inhibition at 10 µM came out at 106%.

`O=C(C1CC1)N1CC(CN2C(=O)C3(CC3)N=C2c2ccc(-c3ccc4cccnc4c3)cc2F)C1` [compound 346, 6-((1-(cyclopropanecarbonyl)azetidin-3-yl)methyl)-5-(2-fluoro-4-(quinolin-7-yl)phenyl)-4,6-diazaqspiro[2.4]hept-4-en-7-one]: the IC50 in experiment [1] is more than 10000 nM; in experiment [2], 53.7 nM; in experiment [3], 49 nM; in experiment [4] it was 43.7 nM; in experiment [5], 22.4 nM; in experiment [6], approximately 17 nM. Further, the inhibition at 10 µM in experiment [3] was determined as 97%.

Turning to `Cn1cnc2cc(-c3ccc(C4=NC5(CC5)C(=O)N4CC4CN(C(=O)C5CC5)C4)c(F)c3)ccc21` [compound 348, 6-((1-(cyclopropanecarbonyl)azetidin-3-yl)methyl)-5-(2-fluoro-4-(1-methyl-1H-benzo[d]imidazol-5-yl)phenyl)-4,6-diazaspiro[2.4]hept-4-en-7-one], the IC50 in experiment [1] was more than 10000 nM; in experiment [2], 87.1 nM; in experiment [3], 63.1 nM; in experiment [4] it was 282 nM; in experiment [5], 40.7 nM; in experiment [6] it was 28.8 nM. For the same compound, in experiment [3], the inhibition at 10 µM was determined as 96%.

As for `O=C(C1CC1)N1CC(CN2C(=O)C3(CC3)N=C2c2ccc(-c3ccc4cc(F)ccc4c3)cc2F)C1` [compound 349, 6-((1-(cyclopropanecarbonyl)azetidin-3-yl)methyl)-5-(2-fluoro-4-(6-fluoronaphthalen-2-yl)phenyl)-4,6-diazaspiro[2.4]hept-4-en-7-one], the IC50 in experiment [1] is more than 10000 nM; in experiment [2] it was 58.9 nM; in experiment [3], 16.6 nM; in experiment [4], 138 nM; in experiment [5], 33.9 nM; in experiment [6], approximately 30.9 nM. The inhibition at 10 µM in experiment [3] turned out to be 102%.

For the compound `O=C(C1CC1)N1CC(CN2C(=O)C3(CC3)N=C2c2ccc(-c3ccc4cccc(F)c4c3)cc2F)C1` [compound 350, 6-((1-(cyclopropanecarbonyl)azetidin-3-yl)methyl)-5-(2-fluoro-4-(8-fluoronaphthalen-2-yl)phenyl)-4,6-diazaspiro[2.4]hept-4-en-7-one], the IC50 in experiment [1] is more than 10000 nM; in experiment [2], 55 nM; in experiment [3], 15.1 nM; in experiment [4] it was 81.3 nM; in experiment [5], 22.4 nM; in experiment [6], approximately 28.2 nM. Further, the inhibition at 10 µM in experiment [3] amounted to 99%.
